Patent US20230088528A1, “USE OF LIPID IN PREPARATION OF NUCLEIC ACID DELIVERY REAGENT AND RELATED PRODUCT THEREOF” (INSTITUTE OF BASIC MEDICAL SCIENCES CHINESE ACADEMY OF …, priority 2019, published 2023)
Counter-ions that a name gives are not always drawn.

Assay: In vivo delivery of lipid-nucleic acid mixture (PGY-sRNA-26) by gavage, relative intake in blood and tissues by RT-qPCR
Set-up: species or system C57BL/6 male mice
Conditions: for oral delivery of sRNA single-chain nucleic acid into the blood, and lung, kidney, spleen, heart, and intestinal tissue of mice / oral delivery of sRNA single-chain nucleic acid into the blood, and lung, kidney, spleen, and heart tissues of mice: 100 μg lipid:1 nmol PGY-sRNA-26 per mouse, 12 hrs after gavage, vs free intake group; for number of organs into which nucleic acid is significantly delivered: among the 6 organs in the experiments
Method: The concentration of a lipid solution in chloroform was 10 mg/ml (stock solution), and grouping was performed according to the lipid compound number.
1 nmol of small RNA (as shown in Table 2) was dissolved in 400 μl of DEPC-treated water in a glass tube, and 10 μl of a corresponding lipid stock solution was added, to give a system containing 100 μg of lipid. The system was well mixed, heated for 15 min in a water bath at 90° C., and then naturally cooled, to obtain a lipid-nucleic acid mixture of the lipid and small RNA.
The C57BL/6 male mice used in the experiment were purchased from Beijing Vital River Laboratory Animal Technology Co., Ltd., about 6 weeks old, and weighed 20-24 g. They were kept in an SPF animal room of the Animal Center of the Institute of Basic Medical Sciences, Chinese Academy of Medical Sciences. The mice were fasted for 12 hrs before gavage.
The lipid-nucleic acid mixture was prepared following the method as described in Example 2. The prepared lipid-nucleic acid mixture was orally administered at a dose of 100 μg lipid:1 nmol single-stranded small RNA PGY-sRNA-26 per mouse.
1) Blank group: Mice (n=4) were given 500 μl of normal saline by gavage, and this group served as a blank control group;
2) Free intake group: Mice (n=4) were given sRNA solution (1 nmol/animal, 500 μl) by direct gavage, and this group served as a negative control group;
3) Lipid treatment group: Mice (n=4) were given 500 μl of the lipid-nucleic acid mixture prepared in step 2 by gavage.
12 hrs after gavage in each group of mice, 500 μl of blood was taken from the eyeball, and 1.5 ml of Trizol Reagent LS (purchased from Invitrogen) was added and mixed well for lysis. The tissue sample was added with 3 ml of Trizol Reagent LS. and homogenized for full lysis, wherein the tissue sample included lung/kidney/spleen/heart/gut. 1 ml of blood or tissue lysate was taken and RNA was extracted according to the following steps.
The blood or tissue lysate was centrifuged at 4° C., and 12,000 rpm for 5 min, the pellet was discarded, and Trizol was transferred to a new centrifuge tube.
Chloroform was added in an amount of 200 μL chloroform/mL Trizol, shaken fully until uniform, and allowed to stand at room temperature for 5 min.
The sample was centrifuged at 4° C., and 12,000 rpm, for 15 min.
The upper aqueous phase was pipetted to another centrifuge tube, and isopropanol was added in an amount of 0.4 mL isopropanol/mL Trizol, mixed well, and allowed to stand at a low temperature for 10-20 min.
The sample was centrifuged at 4° C., and 12,000 rpm, for 15 min, the supernatant was discarded, and the RNA pellet was at the bottom of the tube.
1 mL of 75% ethanol was added, and the centrifuge tube was shaken gently, to suspend the pellet.
The sample was centrifuged at 4° C., and 12,000 rpm, for 10 min, the supernatant was discarded, 1 mL of 75% ethanol was added, and the centrifuge tube was shaken gently, to suspend the pellet.
The sample was centrifuged at 4° C., and 12,000 rpm, for 10 min, the supernatant was discarded, and the sample was air dried at room temperature. The RNA sample was dissolved in 50-100 μL of RNase-free H2O, and the RNA concentration was quantified by determining the OD value.
The sRNA was reversely transcribed into cDNA using a reverse transcription kit (High-Capacity cDNA Reverse Transcription Kits, Applied Biosystems, cat. no. 4368813), following the stem-loop method (see, for example Real-time quantification of microRNAs by stem-loop RT-PCR, Nucleic Acids Res. 2005 Nov. 27; 33(20):e179, incorporated herein by reference). System for reverse transcription: template RNA (200 ng/μL) 10 μL, 10×RT buffer 2.0 μL, 25×dNTP Mix (100 mM) 0.8 μL, U6 RT stem-loop primer 2.0 μL, PGY-sRNA-26 RT stem-loop primer 2.0 μL, MultiScribe™ reverse transcriptase 1.0 μL, RNAase inhibitor 1.0 μL, and nuclease-free water H2O 1.2 μL. […]

[1] = significant difference compared to the control, 100 μg lipid:1 nmol PGY-sRNA-26, 12 hrs

With `CCCCCCCCCCCCCCCCC/C=C/[C@@H](O)[C@@H](N)CO` [Lipid 97, D-erythro-sphingosine (C22 group)] the “oral delivery of sRNA single-chain nucleic acid into the blood, and lung, kidney, spleen, heart, and intestinal tissue of mice” value (shortened to “oral delivery … and intestinal tissue of mice”) was “can effectively orally deliver”, the “number of organs into which nucleic acid is significantly delivered” value was “two organs” and the “oral delivery of sRNA single-stranded nucleic acid into the kidney tissue of mice” value [1] was “can significantly efficiently orally deliver”. For the same compound, the “oral delivery of sRNA single-stranded nucleic acid into the lung tissue of mice” value [1] was “can significantly efficiently orally deliver”.

With 1,3-palmitin-2-myristin [Lipid 76] the “oral delivery of sRNA single-chain nucleic acid into the blood, and lung, kidney, spleen, and heart tissues of mice” value (“oral delivery … and heart tissues of mice” for short) was “can effectively orally deliver”, the “number of organs into which nucleic acid is significantly delivered” value was “two organs” and the “oral delivery of sRNA single-stranded nucleic acid into the lung tissue of mice” value [1] was “can significantly efficiently orally deliver”. The “oral delivery of sRNA single-stranded nucleic acid into the spleen tissue of mice” value [1] was “can significantly efficiently orally deliver”.

In the case of `CCCCCCCCCCCCCCCCCCCC(=O)OCC(COC(=O)CCCCCCCCCCCCCCCCCCC)OC(=O)CCCCCCCCCCCCCCCCCCC` [Lipid 112, Trieicosanoin], the “oral delivery … and intestinal tissue of mice” value is reported as “can effectively orally deliver”.

In the case of `CCCCCCCC/C=C\CCCCCCCC(=O)O[C@H](COC(=O)CCCCCCCCCCCCCCCCC)COP(=O)([O-])OCC[N+](C)(C)C` [Lipid 87, 1-stearoyl-2-oleoyl-sn-glycero-3-phosphocholine], the “oral delivery … and intestinal tissue of mice” value is reported as “can effectively orally deliver”.

With `CCCCCCCCCCCCCCCC(=O)OCC(COP(=O)([O-])OCC[N+](C)(C)C)OC(=O)CCCCCCCCCCCCCCC` (stereo not drawn) [Lipid 119, 1,2-dihexadecanoyl-sn-glycero-3-phosphocholine] the “oral delivery … and intestinal tissue of mice” value was “can effectively orally deliver”.

For “N-palmitoyl-D-erythro-sphingosylphosphocholine [Lipid 105]”, the “oral delivery … and intestinal tissue of mice” value was “can effectively orally deliver” and the “oral delivery of sRNA single-stranded nucleic acid into the blood of mice” value [1] was “can significantly efficiently orally deliver”.

For `CCCCCCCCCCCCCCCCOC[C@H](COP(=O)([O-])OCC[N+](C)(C)C)OC(C)=O` [Lipid 84, β-acetyl-γ-O-hexadecyl-L-α-phosphatidylcholine hydrate], the “oral delivery … and intestinal tissue of mice” value was “can effectively orally deliver”.

For `CCCCCCCCCCCCC/C=C/[C@@H](O)[C@@H](N)CO` [Lipid 98, D-erythro-sphingosine], the “oral delivery … and intestinal tissue of mice” value was “can effectively orally deliver”, the “overall nucleic acid delivery performance among the lipids” value (across the 6 organs in the experiments) was “most significant delivery performance” and the “oral delivery of sRNA single-stranded nucleic acid into the kidney tissue of mice” value [1] was “can significantly efficiently orally deliver”. For the same compound, the “oral delivery of sRNA single-stranded nucleic acid into the lung tissue of mice” value [1] was “can significantly efficiently orally deliver” and the “oral delivery of sRNA single-stranded nucleic acid into the spleen tissue of mice” value [1] was “can significantly efficiently orally deliver”.

In the case of `CCCCCCCCCCCCCCCC(=O)OC[C@@H](O)COP(=O)([O-])OCC[N+](C)(C)C` [Lipid 113, 1-palmitoyl-2-hydroxy-sn-glycerol-3-phosphatidylcholine], the “oral delivery … and intestinal tissue of mice” value is reported as “can effectively orally deliver”.

In the case of `CCCCCCCC/C=C\CCCCCCCC(=O)OC[C@H](COP(=O)([O-])OCC[N+](C)(C)C)OC(=O)CCCCCCC/C=C\CCCCCCCC` [Lipid 117, 1,2-bis-(9Z-octadecenoyl)-sn-glycero-3-phosphocholine], the “oral delivery … and intestinal tissue of mice” value is reported as “can effectively orally deliver”.

For `CCCCCCCC/C=C\CCCCCCCCCCCCCC(=O)N[C@@H](CO)[C@H](O)/C=C/CCCCCCCCCCCCC` [Lipid 91, N-nervonoyl-D-erythro-sphingosine], the “oral delivery … and intestinal tissue of mice” value was “can effectively orally deliver” and the “oral delivery of sRNA single-stranded nucleic acid into the kidney tissue of mice” value [1] was “can significantly efficiently orally deliver”.

With “N-palmitoleoyl-D-erythro-sphingosylphosphocholine [Lipid 103]” the “oral delivery … and intestinal tissue of mice” value was “can effectively orally deliver” and the “oral delivery of sRNA single-stranded nucleic acid into the lung tissue of mice” value [1] was “can significantly efficiently orally deliver”.

With 1,2-myristin-3-palmitin [Lipid 80] the “oral delivery … and heart tissues of mice” value was “can effectively orally deliver”, the “number of organs into which nucleic acid is significantly delivered” value was “two organs” and the “oral delivery of sRNA single-stranded nucleic acid into the heart tissue of mice” value [1] was “can significantly efficiently orally deliver”. For the same compound, the “oral delivery of sRNA single-stranded nucleic acid into the spleen tissue of mice” value [1] was “can significantly efficiently orally deliver”.

In the case of `COC1=C(OC)C(=O)C(C/C=C(\C)CC/C=C(\C)CC/C=C(\C)CC/C=C(\C)CC/C=C(\C)CC/C=C(\C)CC/C=C(\C)CC/C=C(\C)CC/C=C(\C)CCC=C(C)C)=C(C)C1=O` [Lipid 82, Q-10, Ubiquinone 50, Ubiquinone 10], the “oral delivery … and intestinal tissue of mice” value is reported as “can effectively orally deliver”.

In the case of `CCCCCCCCCCCCCCCCOC[C@H](COP(=O)([O-])OCC[N+](C)(C)C)OC(C)=O` [Lipid 85, β-acetyl-γ-O-alkyl-L-α-phosphatidylcholine], the “oral delivery … and intestinal tissue of mice” value is reported as “can effectively orally deliver”.

In the case of `CCCCC/C=C\C/C=C\CCCCCCCC(=O)OC[C@H](COP(=O)([O-])OCC[N+](C)(C)C)OC(=O)CCCCCCC/C=C\C/C=C\CCCCC` [Lipid 107, 1,2-dilinoleoyl-sn-glycero-3-phosphocholine], the “oral delivery … and intestinal tissue of mice” value is reported as “can effectively orally deliver”.

With `CCCCCCCC/C=C\CCCCCCCC(=O)OCC(O)COP(=O)(O)OCCN` (stereo not drawn) [Lipid 116, 1-(9Z-octadecenoyl)-sn-glycero-3-phosphoethanolamine] the “oral delivery … and intestinal tissue of mice” value was “can effectively orally deliver”.

With `CCCCCCCCCCCCCCCC(=O)OC[C@H](COP(=O)(O)O[C@H]1C(O)C(O)C(O)[C@@H](O)C1O)OC(=O)CCCCCCCCCCCCCCC` (stereo partly drawn) [Lipid 109, 1,2-dipalmitoyl-sn-glycero-3-phospho-(l′-myo-inositol) (ammonium salt)] the “oral delivery … and intestinal tissue of mice” value was “can effectively orally deliver”.

With `CCCCCCCCCCCCCCCCCC(=O)OCC(O)COC(=O)CCCCCCCCCCCCCCC` (stereo not drawn) [Lipid 111, 1-palmitin-3-stearin] the “oral delivery … and intestinal tissue of mice” value was “can effectively orally deliver”.

With `CCCCCCCC/C=C\CCCCCCCC(=O)O[C@H](COC(=O)CCCCCCCCCCCCCCC)COP(=O)([O-])OCC[N+](C)(C)C` [Lipid 86, 1-palmitoyl-2-oleoyl-sn-glycero-3-phosphocholine] the “oral delivery … and intestinal tissue of mice” value was “can effectively orally deliver”.

With `CCCCCCCCC=CCCCCCCCC(=O)OCC(COC(=O)CCCCCCCCCCCCCCCCCCC)OC(=O)CCCCCCCC=CCCCCCCCC` (stereo not drawn) [Lipid 78, 1,2-olein-3-arachidin] the “oral delivery … and heart tissues of mice” value was “can effectively orally deliver”.

With “1-palmitoyl-2-oleoyl-sn-glycero-3-phospho-(1′-rac-glycerol) (sodium salt) [Lipid 88]” the “oral delivery … and intestinal tissue of mice” value was “can effectively orally deliver” and the “oral delivery of sRNA single-stranded nucleic acid into the kidney tissue of mice” value [1] was “can significantly efficiently orally deliver”.
